Activity data for 2 compounds are collected here from ChEMBL document CHEMBL1926601, “Persipeptides A and B, two cyclic peptides from Streptomyces sp. UTMC 1154” (Bioorg Med Chem, 2012).

Calls of active or inactive are those of the source. The calls are words filed in the database; no cut-off is given here. Square brackets hold non-standard residues; d marks the D form. Peptide text beside a SMILES is read from it. NMeF = CN[C@@H](Cc1ccccc1)C(=O)O; NMeV = CN[C@H](C(=O)O)C(C)C

The subject of test [1] is Staphylococcus aureus. As to the kind of experiment: Antimicrobial activity against Staphylococcus aureus at 100 ug/ml by agar diffusion test. The format is functional, organism-based.
Test [2] relates to Staphylococcus aureus. Nature of the test: Antimicrobial activity against methicillin-resistant Staphylococcus aureus at 100 ug/ml by agar diffusion test. In kind it is functional, organism-based.

For the compound `CC(C)[C@@H]1NC(=O)[C@H](C(C)C)N(C)C(=O)[C@H](C(C)C)NC(=O)[C@H](Cc2ccccc2)N(C)C(=O)[C@H](Cc2ccccc2)NC1=O` (cyclo(F[NMeF]V[NMeV]V)), the outcome with Staphylococcus aureus [1] and in the test with Staphylococcus aureus [2] was inactive.
For `CC(C)[C@@H]1NC(=O)[C@H](Cc2ccccc2)N(C)C(=O)[C@H](C(C)C)NC(=O)[C@H](C(C)C)N(C)C(=O)[C@H](Cc2ccccc2)NC1=O` (cyclo(F[NMeV]V[NMeF]V)), the outcome in the test on Staphylococcus aureus [1] and with Staphylococcus aureus [2] was inactive.
